In US11407767B2, “Heterocyclyl substituted pyrrolopyridines that are inhibitors of the CDK12 kinase” (The University of Nottingham, priority 2017, dated 2022):
Counter-ions that a name gives are not always drawn.

Molecular target: CDK12/CycK (Homo sapiens, UniProt Q9NYV4)
Assay: Inhibition of CDK12 (ADP-Glo kinase assay)
Type: biochemical
Details: 60 nM CDK12/CycK, 30 minutes pre-incubation, 1 μM ATP, 0.5 μM RBER-IRStide substrate, 1 h at 25° C., read-out: CDK12/cyclin K IC50
Method in brief: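 ADP-Glo luminescence read after a 1 h, 25 °C reaction with 1 μM ATP and 0.5 μM RBER-IRStide peptide. Enzyme (60 nM) and compound were first pre-incubated 30 min; buffer 50 mM HEPES pH 7.5, 20 mM MgCl2, 3 mM MnCl2, 1% DMSO. IC50 fitted after blank subtraction.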

Sequence of CDK12/CycK (Q9NYV4 whole entry): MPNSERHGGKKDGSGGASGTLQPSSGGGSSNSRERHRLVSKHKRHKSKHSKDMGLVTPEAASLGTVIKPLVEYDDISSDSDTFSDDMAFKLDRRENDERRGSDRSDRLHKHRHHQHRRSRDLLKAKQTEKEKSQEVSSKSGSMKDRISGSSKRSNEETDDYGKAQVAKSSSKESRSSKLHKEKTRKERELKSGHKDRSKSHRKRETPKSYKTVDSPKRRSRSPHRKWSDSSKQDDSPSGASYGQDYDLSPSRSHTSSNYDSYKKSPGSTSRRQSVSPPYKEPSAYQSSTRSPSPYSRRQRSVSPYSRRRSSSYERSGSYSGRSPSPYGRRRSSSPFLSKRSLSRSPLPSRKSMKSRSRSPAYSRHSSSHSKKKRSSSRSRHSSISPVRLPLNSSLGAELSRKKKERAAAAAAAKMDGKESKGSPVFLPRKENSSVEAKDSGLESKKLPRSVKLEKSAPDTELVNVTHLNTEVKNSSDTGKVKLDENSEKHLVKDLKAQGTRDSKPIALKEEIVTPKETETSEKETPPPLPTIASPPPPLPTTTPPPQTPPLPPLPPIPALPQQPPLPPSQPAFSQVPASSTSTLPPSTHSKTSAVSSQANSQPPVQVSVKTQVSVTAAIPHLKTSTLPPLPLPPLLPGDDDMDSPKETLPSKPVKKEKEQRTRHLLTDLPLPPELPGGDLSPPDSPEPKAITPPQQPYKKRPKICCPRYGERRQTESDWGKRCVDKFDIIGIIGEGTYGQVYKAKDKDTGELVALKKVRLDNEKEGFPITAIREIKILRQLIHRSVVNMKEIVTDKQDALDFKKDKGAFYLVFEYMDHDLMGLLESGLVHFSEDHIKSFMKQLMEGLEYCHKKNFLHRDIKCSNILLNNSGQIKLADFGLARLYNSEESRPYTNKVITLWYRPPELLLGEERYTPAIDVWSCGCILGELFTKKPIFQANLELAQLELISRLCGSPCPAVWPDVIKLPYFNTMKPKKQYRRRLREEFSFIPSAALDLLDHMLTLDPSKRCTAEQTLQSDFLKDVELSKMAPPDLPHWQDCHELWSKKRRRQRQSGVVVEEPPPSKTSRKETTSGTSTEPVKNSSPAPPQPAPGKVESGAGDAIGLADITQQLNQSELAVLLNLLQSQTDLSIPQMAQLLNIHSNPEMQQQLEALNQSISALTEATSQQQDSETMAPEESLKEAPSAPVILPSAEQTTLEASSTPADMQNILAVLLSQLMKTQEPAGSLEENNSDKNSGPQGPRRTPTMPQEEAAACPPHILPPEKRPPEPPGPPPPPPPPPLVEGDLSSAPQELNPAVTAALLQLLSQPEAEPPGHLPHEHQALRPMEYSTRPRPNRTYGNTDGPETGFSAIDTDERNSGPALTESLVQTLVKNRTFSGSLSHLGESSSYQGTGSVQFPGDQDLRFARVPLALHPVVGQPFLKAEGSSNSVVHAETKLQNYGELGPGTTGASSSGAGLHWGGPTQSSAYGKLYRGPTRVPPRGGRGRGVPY
Sequence of CDK12/CycK (O75909 whole entry partner): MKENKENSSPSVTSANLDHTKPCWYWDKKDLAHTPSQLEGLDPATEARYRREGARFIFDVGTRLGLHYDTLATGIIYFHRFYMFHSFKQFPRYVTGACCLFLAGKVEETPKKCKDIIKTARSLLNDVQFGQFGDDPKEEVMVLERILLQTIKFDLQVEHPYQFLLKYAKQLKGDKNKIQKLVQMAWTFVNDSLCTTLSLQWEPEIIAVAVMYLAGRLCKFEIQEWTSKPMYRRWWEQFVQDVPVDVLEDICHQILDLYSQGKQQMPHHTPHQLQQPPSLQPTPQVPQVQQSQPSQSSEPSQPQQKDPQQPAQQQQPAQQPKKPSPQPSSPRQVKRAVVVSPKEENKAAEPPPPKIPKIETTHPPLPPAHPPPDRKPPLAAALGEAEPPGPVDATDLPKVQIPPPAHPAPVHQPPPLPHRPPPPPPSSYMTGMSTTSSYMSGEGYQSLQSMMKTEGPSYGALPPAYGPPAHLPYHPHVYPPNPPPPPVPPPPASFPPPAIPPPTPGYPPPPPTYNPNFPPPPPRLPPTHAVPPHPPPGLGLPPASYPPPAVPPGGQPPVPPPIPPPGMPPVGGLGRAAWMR

Row | Structure (SMILES) | IC50
1 | CCNCCc1cc2c(-c3cnn4ncccc34)ccnc2[nH]1 [Example 31, N-ethyl-2-(4-(pyrazolo[1,5-b]pyridazin-3-yl)-1H-pyrrolo[2,3-b]pyridin-2-yl)ethan-1-amine] | 0.1 to 1 µM
2 | C=CC(=O)NCC1CCN(Cc2cc3c(-c4cnn5ncccc45)ccnc3[nH]2)C1 (stereo not drawn) [Example 199, N-((1-((4-(Pyrazolo[1,5-b]pyridazin-3-yl)-1H-pyrrolo[2,3-b]pyridin-2-yl)methyl)pyrrolidin-3-yl)methyl)acrylamide] | 1 to 30 µM
3 | O=C(NCCc1cc2c(-c3cnn4ncccc34)ccnc2[nH]1)[C@@H]1CCCN1C(=O)C1=CCCC1 [Example 166, (S)-1-(Cyclopent-1-ene-1-carbonyl)-N-(2-(4-(pyrazolo[1,5-b]pyridazin-3-yl)-1H-pyrrolo[2,3-b]pyridin-2-yl)ethyl)pyrrolidine-2-carboxamide] | 0.1 to 1 µM
4 | C=CC(=O)N1CCC(CC(=O)NCc2cc3c(-c4cnn5ncccc45)ccnc3[nH]2)CC1 [Example 193, 2-(1-Acryloylpiperidin-4-yl)-N-((4-(pyrazolo[1,5-b]pyridazin-3-yl)-1H-pyrrolo[2,3-b]pyridin-2-yl)methyl)acetamide] | 1 to 30 µM
5 | CC1(C)OCC(COc2cnn3ncc(-c4ccnc5[nH]ccc45)c3c2)O1 (stereo not drawn) [Example 25, 5-((2,2-Dimethyl-1,3-dioxolan-4-yl)methoxy)-3-(1H-pyrrolo[2,3-b]pyridin-4-yl)pyrazolo[1,5-b]pyridazine] | 1 to 30 µM
6 | C=CC(=O)N1CCOC[C@H]1C(=O)NCCc1cc2c(-c3cnn4ncccc34)ccnc2[nH]1 [Example 165, (S)-4-Acryloyl-N-(2-(4-(pyrazolo[1,5-b]pyridazin-3-yl)-1H-pyrrolo[2,3-b]pyridin-2-yl)ethyl)morpholine-3-carboxamide] | < 0.1 µM
7 | CC(C)(C)OC(=O)N1CCC(c2cc3c(-c4cnn5ncccc45)ccnc3[nH]2)C1 (stereo not drawn) [Example 119, tert-Butyl 3-(4-(pyrazolo[1,5-b]pyridazin-3-yl)-1H-pyrrolo[2,3-b]pyridin-2-yl)pyrrolidine-1-carboxylate] | 0.1 to 1 µM
8 | C=CC(=O)N1CCC[C@H]1C(=O)N1CCC(c2cc3c(-c4cnn5ncccc45)ccnc3[nH]2)C1 (stereo partly drawn) [Example 153, 1-((2S)-2-(3-(4-(Pyrazolo[1,5-b]pyridazin-3-yl)-1H-pyrrolo[2,3-b]pyridin-2-yl)pyrrolidine-1-carbonyl)pyrrolidin-1-yl)prop-2-en-1-one] | < 0.1 µM
9 | CN(C)CCOCc1cc2c(-c3cnn4ncccc34)ccnc2[nH]1 [Example 168, N,N-Dimethyl-2-((4-(pyrazolo[1,5-b]pyridazin-3-yl)-1H-pyrrolo[2,3-b]pyridin-2-yl)methoxy)ethan-1-amine Formate] | 1 to 30 µM
10 | CN(C)C/C=C/C(=O)N1CCC(C(=O)N2CCC(c3cc4c(-c5cnn6ncccc56)ccnc4[nH]3)CC2)CC1 [Example 66, (E)-4-(Dimethylamino)-1-(4-(4-(4-(pyrazolo[1,5-b]pyridazin-3-yl)-1H-pyrrolo[2,3-b]pyridin-2-yl)piperidine-1-carbonyl)piperidin-1-yl)but-2-en-1-one] | < 0.1 µM
11 | C=CC(=O)N1CCC[C@H]1C(=O)NCCc1cc2c(-c3ccncc3)ccnc2[nH]1 [Example 95, (S)-1-Acryloyl-N-(2-(4-(pyridin-4-yl)-1H-pyrrolo[2,3-b]pyridin-2-yl)ethyl)pyrrolidine-2-carboxamide] | 1 to 30 µM
12 | O=C(NCCc1cc2c(-c3cnn4ncccc34)ccnc2[nH]1)[C@@H]1CCCN1S(=O)(=O)c1ccccc1 [Example 89, (S)-1-(phenylsulfonyl)-N-(2-(4-(pyrazolo[1,5-b]pyridazin-3-yl)-1H-pyrrolo[2,3-b]pyridin-2-yl)ethyl)pyrrolidine-2-carboxamide] | 0.1 to 1 µM
13 | C=CC(=O)N1CCC[C@@H]1C(=O)N(C)CCc1cc2c(-c3cnn4ncccc34)ccnc2[nH]1 [Example 47, (R)-1-Acryloyl-N-methyl-N-(2-(4-(pyrazolo[1,5-b]pyridazin-3-yl)-1H-pyrrolo[2,3-b]pyridin-2-yl)ethyl)pyrrolidine-2-carboxamide] | 1 to 30 µM
14 | CC(C)(C)OC(=O)N1CCN(Cc2cc3c(-c4cnn5ncccc45)ccnc3[nH]2)CC1 [Example 15, tert-Butyl 4-((4-(pyrazolo[1,5-b]pyridazin-3-yl)-1H-pyrrolo[2,3-b]pyridin-2-yl)methyl)piperazine-1-carboxylate] | 1 to 30 µM
15 | Cc1c[nH]c2nccc(-c3cnn4ncccc34)c12 [Example 8, 3-(3-Methyl-1H-pyrrolo[2,3-b]pyridin-4-yl)pyrazolo[1,5-b]pyridazine] | 1 to 30 µM
16 | CN1CCN(CC(=O)NCc2cc3c(-c4cnn5ncccc45)ccnc3[nH]2)CC1 [Example 14, 2-(4-Methylpiperazin-1-yl)-N-((4-(pyrazolo[1,5-b]pyridazin-3-yl)-1H-pyrrolo[2,3-b]pyridin-2-yl)methyl)acetamide] | 1 to 30 µM
17 | O=C(NCCc1cc2c(-c3cnn4ncccc34)ccnc2[nH]1)[C@@H]1CCCN1C(=O)/C=C/CN1CCCC1 [Example 85, (S,E)-N-(2-(4-(pyrazolo[1,5-b]pyridazin-3-yl)-1H-pyrrolo[2,3-b]pyridin-2-yl)ethyl)-1-(4-(pyrrolidin-1-yl)but-2-enoyl)pyrrolidine-2-carboxamide] | 1 to 30 µM

Row | Structure (SMILES) | IC50
18 | C=CC(=O)Nc1cccc(C(=O)N(C)CCc2cc3c(-c4cnn5ncccc45)ccnc3[nH]2)c1 [Example 49, 3-Acrylamido-N-methyl-N-(2-(4-(pyrazolo[1,5-b]pyridazin-3-yl)-1H-pyrrolo[2,3-b]pyridin-2-yl)ethyl)benzamide] | 0.1 to 1 µM
19 | O=C([C@@H]1CCCN1C(=O)CCl)N1CCC(c2cc3c(-c4cnn5ncccc45)ccnc3[nH]2)C1 (stereo partly drawn) [Example 155, 2-Chloro-1-((2S)-2-(3-(4-(pyrazolo[1,5-b]pyridazin-3-yl)-1H-pyrrolo[2,3-b]pyridin-2-yl)pyrrolidine-1-carbonyl)pyrrolidin-1-yl)ethan-1-one] | < 0.1 µM
20 | c1cnn2ncc(-c3ccnc4[nH]c([C@@H]5CCNC5)cc34)c2c1 (single isomer, unassigned) [Example 124, 3-(2-(Pyrrolidin-3-yl)-1H-pyrrolo[2,3-b]pyridin-4-yl)pyrazolo[1,5-b]pyridazine] | 0.1 to 1 µM
21 | CCOCCC(=O)Nc1ccc(C(=O)NCCc2cc3c(-c4cnn5ncccc45)ccnc3[nH]2)cc1 [Example 81, 4-(3-Ethoxypropanamido)-N-(2-(4-(pyrazolo[1,5-b]pyridazin-3-yl)-1H-pyrrolo[2,3-b]pyridin-2-yl)ethyl)benzamide] | < 0.1 µM
22 | c1ccc(Cn2cc(-c3ccnc4[nH]ccc34)nn2)cc1 [Example 134, 4-(1-Benzyl-1H-1,2,3-triazol-4-yl)-1H-pyrrolo[2,3-b]pyridine] | 1 to 30 µM
23 | C=CC(=O)N1CCC[C@H]1C(=O)NCc1cc2c(-c3cnn4ncccc34)ccnc2[nH]1 [Example 183, (S)-1-Acryloyl-N-((4-(pyrazolo[1,5-b]pyridazin-3-yl)-1H-pyrrolo[2,3-b]pyridin-2-yl)methyl)pyrrolidine-2-carboxamide] | 1 to 30 µM
24 | C=CC(=O)N1CCCC(C(=O)NCCc2cc3c(-c4cnn5ncccc45)ccnc3[nH]2)C1 (stereo not drawn) [Example 75, 1-Acryloyl-N-(2-(4-(pyrazolo[1,5-b]pyridazin-3-yl)-1H-pyrrolo[2,3-b]pyridin-2-yl)ethyl)piperidine-3-carboxamide] | < 0.1 µM
25 | NCCc1cc2c(-c3cnn4ncccc34)ccnc2[nH]1 [Example 30, 2-(4-(Pyrazolo[1,5-b]pyridazin-3-yl)-1H-pyrrolo[2,3-b]pyridin-2-yl)ethan-1-amine] | 0.1 to 1 µM
26 | CN(C)C(=O)c1cc2c(-c3cnn4ncccc34)ccnc2[nH]1 [Example 2, N,N-Dimethyl-4-(pyrazolo[1,5-b]pyridazin-3-yl)-1H-pyrrolo[2,3-b]pyridine-2-carboxamide] | 1 to 30 µM
27 | O=C(CN1CCOCC1)NCc1cc2c(-c3cnn4ncccc34)ccnc2[nH]1 [Example 13, 2-Morpholino-N-((4-(pyrazolo[1,5-b]pyridazin-3-yl)-1H-pyrrolo[2,3-b]pyridin-2-yl)methyl)acetamide] | 1 to 30 µM
28 | C=CC(=O)N1CCC[C@H](C(=O)N2CCC(c3cc4c(-c5cnn6ncccc56)ccnc4[nH]3)C2)C1 (stereo partly drawn) [Example 206, 1-((3S)-3-(3-(4-(Pyrazolo[1,5-b]pyridazin-3-yl)-1H-pyrrolo[2,3-b]pyridin-2-yl)pyrrolidine-1-carbonyl)piperidin-1-yl)prop-2-en-1-one] | < 0.1 µM
29 | CN(C)CC(=O)NCc1cc2c(-c3cnn4ncccc34)ccnc2[nH]1 [Example 117, 2-(Dimethylamino)-N-((4-(pyrazolo[1,5-b]pyridazin-3-yl)-1H-pyrrolo[2,3-b]pyridin-2-yl)methyl)acetamide Formate Salt] | 1 to 30 µM
30 | C=CC(=O)N1CCC(C(=O)N2CCC(c3cc4c(-c5cnn6ncccc56)ccnc4[nH]3)C2)CC1 (stereo not drawn) [Example 143, 1-(4-(3-(4-(Pyrazolo[1,5-b]pyridazin-3-yl)-1H-pyrrolo[2,3-b]pyridin-2-yl)pyrrolidine-1-carbonyl)piperidin-1-yl)prop-2-en-1-one] | < 0.1 µM
31 | C=CC(=O)N1CCC[C@H]1C(=O)N(C)CCc1cc2c(-c3cnn4ncccc34)ccnc2[nH]1 [Example 46, (S)-1-Acryloyl-N-methyl-N-(2-(4-(pyrazolo[1,5-b]pyridazin-3-yl)-1H-pyrrolo[2,3-b]pyridin-2-yl)ethyl)pyrrolidine-2-carboxamide] | 0.1 to 1 µM
32 | C=CC(=O)N1CCN(C(=O)/C=C/c2cc3c(-c4cnn5ncccc45)ccnc3[nH]2)CC1 [Example 209, (E)-1-(4-Acryloylpiperazin-1-yl)-3-(4-(pyrazolo[1,5-b]pyridazin-3-yl)-1H-pyrrolo[2,3-b]pyridin-2-yl)prop-2-en-1-one] | < 0.1 µM
33 | CN1CCC(OCc2cc3c(-c4cnn5ncccc45)ccnc3[nH]2)CC1 [Example 167, 3-(2-(((1-Methylpiperidin-4-yl)oxy)methyl)-1H-pyrrolo[2,3-b]pyridin-4-yl)pyrazolo[1,5-b]pyridazine diformate] | 1 to 30 µM
